# Experimental data: paper PMC9681850, “Structural basis of synthetic agonist activation of the nuclear receptor REV-ERB” (Nature Communications, 2022)
# “And” between values parts separate entries of the source, which are not always exact repeats. Equal entries are not always repeated. Where two headings read alike, the source gives them in different places.
# Experiments:
# [1] = biological target: CAR (Homo sapiens, UniProt Q14994); assay: CAR assay; type: cell-based
# [2] = biological target: serotonin transporter (SERT) (Homo sapiens, UniProt P31645); assay: PDSP radioligand binding assay; conditions: secondary full displacement curve, read-out: RLBA Ki
# Chain of serotonin transporter (SERT) (P31645 whole entry, species assumed, the tested form may be a part): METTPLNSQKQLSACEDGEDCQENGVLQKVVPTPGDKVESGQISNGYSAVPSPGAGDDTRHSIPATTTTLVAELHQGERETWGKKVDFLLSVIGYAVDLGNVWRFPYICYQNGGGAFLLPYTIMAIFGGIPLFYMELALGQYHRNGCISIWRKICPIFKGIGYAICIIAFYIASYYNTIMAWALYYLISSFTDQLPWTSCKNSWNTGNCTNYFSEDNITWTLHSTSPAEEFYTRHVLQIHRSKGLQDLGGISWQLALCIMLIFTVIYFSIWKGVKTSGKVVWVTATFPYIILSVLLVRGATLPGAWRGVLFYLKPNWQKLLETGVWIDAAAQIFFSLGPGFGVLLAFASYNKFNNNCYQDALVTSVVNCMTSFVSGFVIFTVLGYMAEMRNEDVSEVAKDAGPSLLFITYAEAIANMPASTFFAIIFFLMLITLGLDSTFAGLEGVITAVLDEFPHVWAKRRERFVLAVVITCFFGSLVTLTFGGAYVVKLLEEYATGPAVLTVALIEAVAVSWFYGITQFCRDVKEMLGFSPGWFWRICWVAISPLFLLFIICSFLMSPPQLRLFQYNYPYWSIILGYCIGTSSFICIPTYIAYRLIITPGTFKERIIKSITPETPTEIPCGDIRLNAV
# Description: (§1) We assessed the specificity of STL1267 using both in house nuclear receptor Gal4-NR reporter assays and the NIMH Psychoactive Drug Screening Program (PDSP) assays. We assessed the specificity of STL1267 in the PDSP’s radioligand displacement assays, screening for binding to off-target GPCRs, ion channels, transporters, and other drug targets (Table S1). Of the 43 targets assessed in this panel, we observed no detectable binding in 41 of them. […] Additional assessment in serotonin transporter and kappa opioid receptor activity in a functional assay may be warranted to determine absolute specificity. […]
# (§2) Receptor RLBA Ki Receptor activity
# (§3) Suppl ementary Tabl e 1. Speci fi ci ty of STL1267. […]
# [3] = biological target: kappa opioid receptor (KOR) (Homo sapiens, UniProt P41145); assay: PDSP radioligand binding assay; conditions: secondary full displacement curve, read-out: RLBA Ki
# Chain of kappa opioid receptor (KOR) (P41145 whole entry): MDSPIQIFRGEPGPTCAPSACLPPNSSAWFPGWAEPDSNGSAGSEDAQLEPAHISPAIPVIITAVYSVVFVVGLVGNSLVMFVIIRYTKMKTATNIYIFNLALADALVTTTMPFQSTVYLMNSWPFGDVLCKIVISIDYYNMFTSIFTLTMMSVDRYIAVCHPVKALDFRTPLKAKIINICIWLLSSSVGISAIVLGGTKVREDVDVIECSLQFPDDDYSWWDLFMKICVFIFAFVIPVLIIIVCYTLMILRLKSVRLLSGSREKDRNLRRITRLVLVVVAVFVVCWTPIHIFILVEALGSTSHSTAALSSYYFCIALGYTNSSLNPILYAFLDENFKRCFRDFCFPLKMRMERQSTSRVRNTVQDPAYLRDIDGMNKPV
# Description: as §1, §2, §3
# [4] = biological target: T1, REV-ERBα F488A (Homo sapiens, UniProt P20393, F488A); assay: two-hybrid reporter assay with mutant receptor; type: cell-based; conditions: F488A vs WT
# T1 construct: WT or mutant Gal4DBD- full length REV-ERBα fusion and NCoR1-VP16 fusion protein; expressed in transfected cells; host or cells: HEK293 cells with Gal4UAS luciferase reporter stably integrated
# T1 sequence (P20393 whole entry F488A, the tested form may be a part): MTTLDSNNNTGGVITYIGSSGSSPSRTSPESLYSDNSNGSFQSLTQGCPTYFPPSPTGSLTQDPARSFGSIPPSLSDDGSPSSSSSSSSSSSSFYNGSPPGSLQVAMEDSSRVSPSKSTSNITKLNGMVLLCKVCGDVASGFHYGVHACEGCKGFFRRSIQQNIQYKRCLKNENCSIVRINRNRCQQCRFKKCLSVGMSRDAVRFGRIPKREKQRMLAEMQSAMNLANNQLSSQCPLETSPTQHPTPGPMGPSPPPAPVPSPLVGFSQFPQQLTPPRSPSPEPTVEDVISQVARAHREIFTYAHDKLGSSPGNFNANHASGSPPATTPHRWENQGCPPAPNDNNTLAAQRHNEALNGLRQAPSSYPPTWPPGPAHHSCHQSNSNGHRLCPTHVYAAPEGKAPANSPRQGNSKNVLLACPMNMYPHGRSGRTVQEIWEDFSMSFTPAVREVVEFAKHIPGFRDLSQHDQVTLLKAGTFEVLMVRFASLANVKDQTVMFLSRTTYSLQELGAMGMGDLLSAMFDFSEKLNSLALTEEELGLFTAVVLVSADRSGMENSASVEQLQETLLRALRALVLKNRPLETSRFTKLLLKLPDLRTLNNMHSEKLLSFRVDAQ
# T1 sequence (O75376 whole entry partner, the tested form may be a part): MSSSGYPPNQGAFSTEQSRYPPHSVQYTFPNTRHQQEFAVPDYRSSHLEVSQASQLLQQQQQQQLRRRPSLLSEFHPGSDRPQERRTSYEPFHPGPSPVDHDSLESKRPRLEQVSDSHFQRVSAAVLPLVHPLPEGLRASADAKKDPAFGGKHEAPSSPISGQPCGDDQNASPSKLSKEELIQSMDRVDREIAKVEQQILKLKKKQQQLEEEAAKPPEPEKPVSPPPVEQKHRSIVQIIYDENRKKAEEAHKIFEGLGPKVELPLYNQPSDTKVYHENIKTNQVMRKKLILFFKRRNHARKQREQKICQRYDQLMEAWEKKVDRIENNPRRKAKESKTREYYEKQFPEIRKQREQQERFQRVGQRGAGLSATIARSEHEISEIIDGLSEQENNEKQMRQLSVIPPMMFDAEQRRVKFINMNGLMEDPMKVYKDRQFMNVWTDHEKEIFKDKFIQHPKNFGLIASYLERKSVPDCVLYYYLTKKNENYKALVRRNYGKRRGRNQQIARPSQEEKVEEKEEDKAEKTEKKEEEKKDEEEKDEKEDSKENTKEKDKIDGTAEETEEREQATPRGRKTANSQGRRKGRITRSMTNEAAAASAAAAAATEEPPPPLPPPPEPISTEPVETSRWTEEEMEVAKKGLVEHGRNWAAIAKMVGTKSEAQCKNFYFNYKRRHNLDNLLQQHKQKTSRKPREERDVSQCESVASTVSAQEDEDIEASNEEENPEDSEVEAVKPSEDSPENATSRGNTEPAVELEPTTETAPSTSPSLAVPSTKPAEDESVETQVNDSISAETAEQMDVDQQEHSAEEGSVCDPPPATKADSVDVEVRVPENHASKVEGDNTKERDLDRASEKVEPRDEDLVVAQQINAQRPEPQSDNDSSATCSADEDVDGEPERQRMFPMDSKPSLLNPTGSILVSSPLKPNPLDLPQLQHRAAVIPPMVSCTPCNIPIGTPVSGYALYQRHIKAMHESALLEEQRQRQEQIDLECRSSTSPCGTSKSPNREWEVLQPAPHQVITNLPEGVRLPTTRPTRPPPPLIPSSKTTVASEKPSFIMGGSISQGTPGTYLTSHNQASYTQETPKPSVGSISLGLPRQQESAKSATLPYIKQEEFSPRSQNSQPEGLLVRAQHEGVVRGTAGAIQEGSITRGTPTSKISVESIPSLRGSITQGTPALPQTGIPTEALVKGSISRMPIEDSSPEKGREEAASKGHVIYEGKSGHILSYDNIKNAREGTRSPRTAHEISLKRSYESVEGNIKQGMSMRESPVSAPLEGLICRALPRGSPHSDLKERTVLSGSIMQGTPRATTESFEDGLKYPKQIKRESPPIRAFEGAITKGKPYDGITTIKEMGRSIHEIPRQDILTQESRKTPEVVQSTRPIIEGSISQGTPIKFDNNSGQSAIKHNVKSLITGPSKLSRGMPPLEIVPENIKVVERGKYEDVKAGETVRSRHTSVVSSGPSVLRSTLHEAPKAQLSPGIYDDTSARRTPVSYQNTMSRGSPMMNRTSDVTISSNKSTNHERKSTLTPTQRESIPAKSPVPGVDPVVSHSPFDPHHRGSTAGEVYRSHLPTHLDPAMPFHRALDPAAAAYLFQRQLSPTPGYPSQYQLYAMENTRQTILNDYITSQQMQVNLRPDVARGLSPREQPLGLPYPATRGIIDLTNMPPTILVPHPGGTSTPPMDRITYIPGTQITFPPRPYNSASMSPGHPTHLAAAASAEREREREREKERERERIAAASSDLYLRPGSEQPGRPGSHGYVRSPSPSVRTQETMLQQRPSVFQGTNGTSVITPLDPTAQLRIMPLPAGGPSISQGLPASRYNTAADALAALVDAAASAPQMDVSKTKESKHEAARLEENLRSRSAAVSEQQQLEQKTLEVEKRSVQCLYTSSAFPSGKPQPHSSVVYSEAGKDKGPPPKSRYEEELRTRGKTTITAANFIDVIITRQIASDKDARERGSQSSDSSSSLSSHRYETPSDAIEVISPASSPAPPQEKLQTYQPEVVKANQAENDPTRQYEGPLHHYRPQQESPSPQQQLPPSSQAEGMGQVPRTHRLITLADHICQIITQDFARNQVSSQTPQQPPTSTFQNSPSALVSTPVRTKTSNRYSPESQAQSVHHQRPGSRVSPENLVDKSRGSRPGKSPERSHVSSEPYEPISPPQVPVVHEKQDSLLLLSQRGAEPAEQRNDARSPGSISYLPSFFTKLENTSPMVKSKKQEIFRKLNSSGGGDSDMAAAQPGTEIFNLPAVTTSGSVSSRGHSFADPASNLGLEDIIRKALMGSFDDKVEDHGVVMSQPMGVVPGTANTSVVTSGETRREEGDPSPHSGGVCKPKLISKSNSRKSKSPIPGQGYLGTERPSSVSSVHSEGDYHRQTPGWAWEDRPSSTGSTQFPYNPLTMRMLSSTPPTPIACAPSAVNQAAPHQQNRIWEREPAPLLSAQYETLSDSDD
# Description: (§4) The removal of the bulkier Phe488 sidechain may allow for the ligand binding pocket to wrap around the ligand more tightly, which may explain the higher activity of this mutant REV-ERB.
# (§5) The NCoR-Vp16 plasmid and REV-ERBα/β-FL GAL4-DBD wild-type or point mutation plasmids were incubated with the transfection agent, Lipofectamine 2000. GFP plasmid was also in the transfection mix to confirm transfection efficiency. HEK cells were plated in 10 cm dishes for western blot analysis, and HEK UAS-luc cells were plated in 96 well plates for luciferase assay analysis. Prior to cellular adherence, transfection mix was added. The cells and transfection mix were incubated at 37 °C in a humidified atmosphere of 5% CO2. The transfection incubation lasted overnight for luciferase assays and 48 h for protein isolation/western blot analysis. For luciferase assays, REV-ERB agonists were added in an 11-point serial dilution the day following overnight transfection. Cells were incubated with the compound for 24 h, prior to luciferin addition and luminescence read out.
# [5] = biological target: T2, REV-ERBα LBD (Homo sapiens, UniProt P20393); assay: FRET assay of NCoR ID1 CoRNR box recruitment; type: biochemical; design: agonist-dependent recruitment of NCoR ID1 CoRNR box to the REV-ERBα-LBD
# T2 sequence (P20393 284-614 limits assumed): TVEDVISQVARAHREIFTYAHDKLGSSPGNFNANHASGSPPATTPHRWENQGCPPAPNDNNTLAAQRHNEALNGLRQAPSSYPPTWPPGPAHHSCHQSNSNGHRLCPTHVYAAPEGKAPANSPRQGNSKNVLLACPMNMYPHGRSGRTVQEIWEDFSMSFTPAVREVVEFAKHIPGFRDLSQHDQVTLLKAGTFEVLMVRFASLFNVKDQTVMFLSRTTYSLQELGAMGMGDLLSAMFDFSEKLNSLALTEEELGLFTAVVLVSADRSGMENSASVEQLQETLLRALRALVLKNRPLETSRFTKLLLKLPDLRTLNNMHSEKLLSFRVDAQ
# Description: We noted a recent patent that described a series of REV-ERB agonists (6-substituted[1,2,4]triazolo[4,3-b]pyridazines) in assays that detected the ability of small molecules to enhance the interaction of REV-ERBα with NCoR either in biochemical or cell-based assays.
# Histidine tagged REV-ERBα/β complexed with heme was added to each well to a final concentration of 4 nM. NCoR ID1 fluorescein (ref#PV4622, Batch# 1797468C) was added to each well to a final concentration of 150 nM, and terbium anti-histidine (ref#PV5895, batch 1730002B) was added to a final concentration of 1 nM. Mixture was incubated at room temperature on an orbital shaker for 1 h at 200 rpm. The lanthascreen assay protocol (Dual PMT, excitation 340 nm, dual emission 495/520, Gain 110/110) was used to read the plate.
# [6] = system: REV-ERBα F497A, F443A, L480A, F439A, and F484A; assay: two-hybrid reporter assay with mutant receptors; type: cell-based, human; conditions: F484A vs WT
# Description: as §4, §5
# [7] = biological target: T3, full length human REV-ERBα (Homo sapiens, UniProt P20393); assay: cell-based two-hybrid luciferase reporter assay (REV-ERBα-FL/GAL4-DBD + NCoR-Vp16, HEK UAS-luc cells); conditions: HEK293 UAS-luc cells
# T3 construct: expressed in transfected cells; host or cells: HEK293 cells with stably integrated GAL4-UAS luciferase reporter
# T3 sequence (P20393 whole entry, the tested form may be a part): as the sequence (P20393 whole entry F488A, the tested form may be a part) above, with A488F counted along it
# T3 sequence (O75376 whole entry partner, the tested form may be a part): as the sequence (O75376 whole entry partner, the tested form may be a part) above
# Chain of CAR (Q14994 whole entry): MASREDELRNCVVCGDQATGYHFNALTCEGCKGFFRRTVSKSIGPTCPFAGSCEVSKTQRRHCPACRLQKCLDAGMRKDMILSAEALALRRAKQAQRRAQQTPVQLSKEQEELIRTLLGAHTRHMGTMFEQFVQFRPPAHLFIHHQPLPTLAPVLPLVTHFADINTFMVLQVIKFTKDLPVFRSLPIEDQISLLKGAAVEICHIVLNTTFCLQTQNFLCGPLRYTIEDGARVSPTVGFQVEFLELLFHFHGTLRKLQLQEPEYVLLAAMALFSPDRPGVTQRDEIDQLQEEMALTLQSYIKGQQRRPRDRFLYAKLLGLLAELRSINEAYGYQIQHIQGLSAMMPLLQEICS
structure (smiles),measurement,setting,value
Clc1nnc2ccc(Oc3ccccc3-c3ccccc3)nn12 [STL1267],activity at CAR,[1],did not have activity
same,Ki,[2],2000 to 4000 nM and 2100 nM
same,Ki,[3],720 nM
same,effect of mutation on NCoR recruitment activity,[4],impressive improvement in potency and efficacy
same,efficacy of NCoR ID1 recruitment relative to SR9009,[5],roughly double
same,potency relative to SR9009 in the FRET assay,[5],more than ten times greater
same,EC50,[5]; REV-ERBα-LBD,130 nM
same,potency relative to SR9009 in the FRET assay,[5]; listed as 1267,14.6 fold
same,effect of mutation on STL1267 induced REV-ERBα/NCoR interaction,[6],loss or severe reduction in activity
same,maximal efficacy for recruitment of NCoR-VP16 vs. SR9009,[7],~ 8 fold
same,EC50,"[7]; 24 h, read-out: EC50, recruitment of NCoR-Vp16",1800 nM
